The results in this text go back to publication PMC11093748, “De novo identification of CD4^+ T cell epitopes” (Nature Methods, 2024).

The subject of one test is Jurkat cells, No TCR. The test is described as follows: Single SABR-II co-incubation, background without TCR. The class given is cell-based, human. Conditions: No TCR, Ext. Data Fig. 6C, 18-20 hr. The text has this: (§1) We performed systematic screening of the cloned TCRs against the I-Ag7 SABR-II library. Several TCRs along with a positive control (such as BDC2.5 or 4-8Ins) were screened individually against the library for each sort (Extended Data Fig. 6a and Supplementary Table 4). High- and low-confidence ES zones for each screened TCR were defined by the ES values of the control TCR’s cognate epitopes. For all putative cognate epitopes, single SABR-IIs were constructed, expressed in NFAT–GFP Jurkat cells and used for co-incubation with the corresponding TCRs. Co-incubation assays that yielded a GFP signal higher than that obtained in assays with no TCR were determined to be positive and the epitopes deemed true cognate ligands (Extended Data Fig. 6b,c). Using this strategy, we obtained epitopes in the high-confidence zone for eight TCRs (Fig. 3a and Extended Data Fig. 6b,d). Among numerous altered peptide ligands (APLs), these TCRs recognized the physiological InsC-ChgA HIP ([…] and analogs, recognized by TCR5, TCR6B, TCR9 and TCR34), InsC-Iapp HIP ([…] and analogs, recognized by TCR4 and TCR15) and InsB9:23 ([…] and analogs recognized by TCR24 and TCR37). These cognate high-confidence hits were validated using single SABR-II co-incubation assays (Fig. 3b and Extended Data Fig. 7a). Further validations using in vitro mouse interleukin-2 (mIL-2) secretion by TCR-expressing 5KC reporter cells[13] or CD25 expression by TCR-expressing splenic CD4^+ T cells upon stimulation with the cognate epitope were performed (Extended Data Fig. 7b,c). Furthermore, low-confidence hits were called for ten TCRs and tested in co-incubation assays.
(§2) For SABR library screens, 3 × 10^6 NFAT–GFP Jurkat cells expressing the SABR library were labeled with CellTrace Violet (BioLegend) according to the manufacturer’s protocol before incubation with 3 × 10^6 Jurkat cells expressing the TCR of interest. These mixtures were incubated in a six-well plate for 16–20 h. Cells were stained with anti-CD69-APC-Cy7 where indicated (BioLegend) and the top 1–2% of GFP^+CD69^+ cells were sorted for genomic DNA extraction, indexing and sequencing (see below). Multiplexed assays were scaled on a per-TCR basis (for example 3 × 10^6 for each of three TCRs against 9 × 10^6 library cells). For single SABR assays, unless otherwise defined, 5 × 10^5 SABR expressing NFAT–GFP Jurkat cells (or 5KC cells) were labeled with CellTrace Violet (BioLegend) according to the manufacturer’s protocol before incubation with 5 × 10^5 TCR-expressing Jurkat cells (or 5KC cells) in a round-bottom 96-well plate for 16–20 h. Cells were stained with anti-CD69-APC-Cy7 when indicated and acquired on the Attune NxT flow cytometer (Thermo Fisher Scientific). All flow analysis was performed using FlowJo (BD). For Daudi cell co-culture, 1 × 10^6 Jurkat cells expressing the TCR of interest were incubated with 1 × 10^6 Daudi cells expressing a SABR of interest for 3 days. On day 3, cells were labeled with anti-RT1B-PE and anti-Fas-APC-Cy7 before being acquired on the Attune NxT flow cytometer.

Another test relates to TCR5. The test is described as follows: Single SABR-II co-incubation, NFAT-GFP Jurkat. Conditions: TCR 5, Ext. Data Fig. 6C, 18-20 hr. The class given is cell-based, mouse.
Source text: as §1, §2

In the next test the test system is BDC2.5 TCR. The test is described as follows: I-Ag7 SABR-II library screen, enrichment score. The class given is cell-based, mouse. Conditions: I-Ag7 library. The text has this: We then asked whether SABR-IIs could be used to present a library of epitopes for CD4^+ T cell antigen discovery. To that end, we constructed a SABR-II library to present epitopes derived from pancreatic islets in I-Ag7 by curating a list of 4,075 published epitopes from the Immune Epitope Database (iedb.org)[50] and a study by Wan et al.[51] (Supplementary Table 1). Of note, this defined library consisted of unmodified epitopes from endogenous proteins, synthetic mimotopes, deamidated epitopes and hybrid insulin peptides (HIPs) that arise from post-translational fusion and are not genetically encoded in vivo[52],[53]. The epitope library was inserted into the I-Ag7 SABR-II backbone through pooled oligonucleotide synthesis, amplification and ligation-free cloning (Extended Data Fig. 3a). The I-Ag7 SABR-II-library was then expressed in NFAT–GFP Jurkat cells. We confirmed that after sequencing, the library accounted for a mean of 708 reads per epitope (Extended Data Fig. 3b). As a proof of concept, we performed co-incubation assays with Jurkat cells expressing the BDC2.5 TCR and sorted the top 1–2% of GFP^+CD69^+ cells at a rate of ~20 min per replicate with three replicates per TCR. We extracted the genomic DNA from sorted cells, amplified the SABR portion of the integrated proviruses and subjected the amplicons to Illumina sequencing (Extended Data Fig. 3c,d). The 1–2% sort gate represents >50-fold enrichment of cognate epitopes with minimal loss of signal (Extended Data Fig. 3e–h). Sequence reads were aligned to the I-Ag7 SABR-II backbone and the corresponding epitopes were scored based on their read counts. For each TCR under investigation, an enrichment score (ES) was determined for all the epitopes in a library. In each experiment, three replicates of a sort with TCR-expressing Jurkat cells were performed and reads were counted post-sequencing. In addition, three replicates of the unsorted library were also sequenced. A linear regression model was built using the unsorted library counts and used to determine the expected abundance of each epitope in the library. The ES was calculated based on the difference between the measured and the expected abundance of each epitope on a per-TCR basis (Fig. 1e). Based on ES values, two quantitative thresholds were used to determine putative cognate epitopes of a given TCR. A high-confidence zone containing clear outliers with a high ES and a low-confidence zone containing weak outliers with a moderately high ES were determined (Fig. 1e). This two-tiered strategy was used to call putative hits from screens. All the top-scoring epitopes for the BDC2.5 TCR were known BDC2.5 ligands containing the WXRM(D/E) motif (Fig. 1f,g, enriched ligands in red), a well-characterized trait of the BDC2.5 TCR[43],[54]–[56]. Across several independent experiments there was limited variation in ES values for the same TCRs and several epitopes fell into high- or low-confidence zones consistently (Extended Data Fig. 4a). Using a different TCR that was isolated from NOD mice, 4-8Ins[57], which recognized the InsB9:23 epitope ([…]), we observed a similar pattern of ES for cognate epitopes (Extended Data Fig. 4b).
For SABR library screens, 3 × 10^6 NFAT–GFP Jurkat cells expressing the SABR library were labeled with CellTrace Violet (BioLegend) according to the manufacturer’s protocol before incubation with 3 × 10^6 Jurkat cells expressing the TCR of interest. These mixtures were incubated in a six-well plate for 16–20 h. Cells were stained with anti-CD69-APC-Cy7 where indicated (BioLegend) and the top 1–2% of GFP^+CD69^+ cells were sorted for genomic DNA extraction, indexing and sequencing (see below). Multiplexed assays were scaled on a per-TCR basis (for example 3 × 10^6 for each of three TCRs against 9 × 10^6 library cells). […]

The mark [1] stands for this setting: EXPT1 of 8 biological experiments.

In the case of EKAHHPIWARMDAKK, the “%GFP+CD69+ cells of SABR-NFAT-GFP-Jurkat cells” value (“%GFP+CD69+ cells” below) was determined as 0.55% in the test on Jurkat cells, No TCR (technical replicate 1); 0.54% with Jurkat cells, No TCR (technical replicate 2); 34.4% in the test with TCR5 (technical replicate 1); 35.1% with TCR5 (technical replicate 2). The Enrichment score is given as 0.000952 with BDC2.5 TCR (setting [1]); 0.00052 in the test on BDC2.5 TCR (EXPT2 of 8); 0.00087 in the test with BDC2.5 TCR (EXPT3 of 8); 0.00058 in the test on BDC2.5 TCR (EXPT4 of 8); 0.001178 in the test on BDC2.5 TCR (EXPT5 of 8); 0.001392 in the test on BDC2.5 TCR (EXPT6 of 8). In addition, the Enrichment score is reported as 0.000919 with BDC2.5 TCR (EXPT7 of 8) and 0.000731 in the test with BDC2.5 TCR (EXPT8 of 8).
With EKAHVPIWARMDAKK, the “%GFP+CD69+ cells” value in the test on Jurkat cells, No TCR (technical replicate 1) was 2.48%; in the test on Jurkat cells, No TCR (technical replicate 2), 2.95%; in the test on TCR5 (technical replicate 1) it was 29.9%; in the test with TCR5 (technical replicate 2) it was 30.2%. Also, the Enrichment score with BDC2.5 TCR (setting [1]) is recorded as 0.000866; with BDC2.5 TCR (EXPT2 of 8) it was 0.000378; with BDC2.5 TCR (EXPT3 of 8) it was 0.000722; in the test on BDC2.5 TCR (EXPT4 of 8) it was 0.00038; with BDC2.5 TCR (EXPT5 of 8), 0.000744; with BDC2.5 TCR (EXPT6 of 8), 0.001001. Besides, the figures for the Enrichment score with BDC2.5 TCR (EXPT7 of 8) and in the test with BDC2.5 TCR (EXPT8 of 8) were 0.000451 and 0.000387, respectively.
With RLGLWSRMDQLAKELTAE, the “%GFP+CD69+ cells” value came out at 1.36% in the test with Jurkat cells, No TCR (technical replicate 1); 1.22% in the test on Jurkat cells, No TCR (technical replicate 2); 56.2% in the test with TCR5 (technical replicate 1); 56% in the test with TCR5 (technical replicate 2). Also, the Enrichment score came out at 0.001771 with BDC2.5 TCR (setting [1]); 0.001151 in the test with BDC2.5 TCR (EXPT2 of 8); 0.002655 in the test with BDC2.5 TCR (EXPT3 of 8); 0.001435 in the test on BDC2.5 TCR (EXPT4 of 8); 0.002428 with BDC2.5 TCR (EXPT5 of 8); 0.00271 in the test with BDC2.5 TCR (EXPT6 of 8). In addition, the Enrichment score in the test with BDC2.5 TCR (EXPT7 of 8) came out at 0.002468; in the test with BDC2.5 TCR (EXPT8 of 8), 0.002661.
On to RRAGDLQTLWSRMDARR, for which the “%GFP+CD69+ cells” value came out at 0.37% with Jurkat cells, No TCR (technical replicate 1); 0.41% with Jurkat cells, No TCR (technical replicate 2); 22.4% in the test with TCR5 (technical replicate 1); 18.8% in the test with TCR5 (technical replicate 2). Further, the Enrichment score in the test with BDC2.5 TCR (setting [1]) is listed as 0.002517; in the test with BDC2.5 TCR (EXPT2 of 8), 0.001322; with BDC2.5 TCR (EXPT3 of 8) it was 0.002797; with BDC2.5 TCR (EXPT4 of 8) it was 0.002419; with BDC2.5 TCR (EXPT5 of 8), 0.002428; in the test with BDC2.5 TCR (EXPT6 of 8) it was 0.002187. Moreover, the Enrichment score in the test on BDC2.5 TCR (EXPT7 of 8) was 0.002605; in the test with BDC2.5 TCR (EXPT8 of 8) it was 0.002542.
For the sequence SRLGLWSRMDQLAKELTAE, the “%GFP+CD69+ cells” value in the test with Jurkat cells, No TCR (technical replicate 1) was 1.65%; in the test on Jurkat cells, No TCR (technical replicate 2), 1.6%; with TCR5 (technical replicate 1) it was 73.5%; in the test with TCR5 (technical replicate 2), 71.6%. For the same sequence, the Enrichment score is recorded as 0.002042 in the test with BDC2.5 TCR (setting [1]); 0.001129 in the test on BDC2.5 TCR (EXPT2 of 8); 0.002688 in the test on BDC2.5 TCR (EXPT3 of 8); 0.002123 in the test on BDC2.5 TCR (EXPT4 of 8); 0.003298 in the test with BDC2.5 TCR (EXPT5 of 8); 0.002741 in the test with BDC2.5 TCR (EXPT6 of 8). Besides, the Enrichment score amounted to 0.00232 in the test with BDC2.5 TCR (EXPT7 of 8) and 0.003121 in the test on BDC2.5 TCR (EXPT8 of 8).
As to SRLGLWVRMEQLAKELTAE, the “%GFP+CD69+ cells” value with Jurkat cells, No TCR (technical replicate 1) was determined as 1.58%; in the test on Jurkat cells, No TCR (technical replicate 2), 1.53%; in the test on TCR5 (technical replicate 1) it was 21.9%; in the test on TCR5 (technical replicate 2), 19.4%. Also, the Enrichment score in the test on BDC2.5 TCR (setting [1]) stood at 0.001795; in the test with BDC2.5 TCR (EXPT2 of 8), 0.001184; in the test on BDC2.5 TCR (EXPT3 of 8), 0.002703; with BDC2.5 TCR (EXPT4 of 8), 0.001978; with BDC2.5 TCR (EXPT5 of 8), 0.002454; with BDC2.5 TCR (EXPT6 of 8) it was 0.002768. The results for the Enrichment score with BDC2.5 TCR (EXPT7 of 8) and in the test with BDC2.5 TCR (EXPT8 of 8) were 0.002526 and 0.002128, respectively.
